Laboratory results reported in patent publication US12495798B2, “Nicotinamide compound and herbicidal composition comprising compound” (KOREA RESEARCH INSTITUTE OF CHEMICAL TECHNOLOGY, priority 2019, dated 2025).

Key:
Assay type in all cases: in vivo
sorghum [1] = test: Herbicidal activity test against upland field weeds (foliar treatment test); conditions: Sorghum, 50 g ai/ha, scale 0-100
How it was run: (§1)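 Visual 0–100 control ratings relative to untreated plants, taken 14 (or 21) days after spraying foliage at 50 or 75 g a.i./ha. Spray solution: 50% acetone with 0.1% Tween-20; plants kept in greenhouse at 30±5 °C, 14 h light/10 h dark.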

barnyard grass = test: as above; conditions: Echinochloa crus-galli, 50 g ai/ha, scale 0-100
How it was run: as §1

fall panicum = test: as above; conditions: Panicum dichotomiflorum, 50 g ai/ha, scale 0-100
How it was run: as §1

indian jointvetch = test: as above; conditions: 50 g ai/ha, scale 0-100
How it was run: as §1

cocklebur [2] = test: as above; conditions: Xanthium strumarium, 50 g ai/ha, scale 0-100
How it was run: as §1

sorghum [3] = test: Herbicidal activity test against upland field weeds (soil treatment test); set-up: key to Soil treatment herbicidal activity, Sorghum: 0 (no control); 100 (complete control); conditions: 50 g ai/ha, scale 0 (no control) to 100 (complete control); for plant injury at 50 g/ha: Sorghum
How it was run: (§2)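 Weed control scored visually on a 0 (none) to 100 (complete) scale versus untreated pots at 14 or 21 days in greenhouse (30±5 °C, 14 h light). Test compounds, 50 or 75 g a.i./ha in 50% acetone/0.1% Tween-20, hand-sprayed onto soil one day post-sowing.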

quack grass = test: as above; set-up: key to Soil treatment herbicidal activity, quack grass: 0 (no control); 100 (complete control); conditions: 50 g ai/ha, scale 0 (no control) to 100 (complete control)
How it was run: as §2

velvetleaf = test: as above; set-up: key to Soil treatment herbicidal activity, velvet leaf: 0 (no control); 100 (complete control); conditions: 50 g ai/ha, scale 0 (no control) to 100 (complete control)
How it was run: as §2

cocklebur [4] = test: as above; set-up: key to Soil treatment herbicidal activity, Cocklebur: 0 (no control); 100 (complete control); conditions: 50 g ai/ha, scale 0 (no control) to 100 (complete control)
How it was run: as §2

corn = test: Phytotoxicity test for upland field crops (foliar treatment test); set-up: key: 0 (no harm); 9 (complete withered)
How it was run: (§3)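 Spray-booth foliar treatment of greenhouse-grown crops at 19˜300 g a.i./ha. Visual crop injury was scored 0–9 against untreated plants at 7 and 14 days.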

cotton = test: as above; set-up: key: 0 (no harm); 9 (complete withered)
How it was run: as §3

rice = test: as above; set-up: key: 0 (no harm); 9 (complete withered)
How it was run: as §3

soybean = test: as above; set-up: key: 0 (no harm); 9 (complete withered)
How it was run: as §3

wheat = test: as above; set-up: key: 0 (no harm); 9 (complete withered)
How it was run: as §3

[5] = 50 g ai/ha, Corn (7 days after treatment)
[6] = 50 g ai/ha, Corn (14 days after treatment)
[7] = 100 g ai/ha, Corn (7 days after treatment)
[8] = 100 g ai/ha, Corn (14 days after treatment)
[9] = 50 g ai/ha, Cotton (7 days after treatment)
[10] = 50 g ai/ha, Cotton (14 days after treatment)
[11] = 100 g ai/ha, Cotton (7 days after treatment)
[12] = 100 g ai/ha, Cotton (14 days after treatment)
[13] = 50 g ai/ha, Rice (7 days after treatment)
[14] = 50 g ai/ha, Rice (14 days after treatment)
[15] = 100 g ai/ha, Rice (7 days after treatment)
[16] = 100 g ai/ha, Rice (14 days after treatment)
[17] = 50 g ai/ha, Soybean (7 days after treatment)
[18] = 50 g ai/ha, Soybean (14 days after treatment)
[19] = 100 g ai/ha, Soybean (7 days after treatment)
[20] = 100 g ai/ha, Soybean (14 days after treatment)
[21] = 50 g ai/ha, Wheat (7 days after treatment)
[22] = 50 g ai/ha, Wheat (14 days after treatment)
[23] = 100 g ai/ha, Wheat (7 days after treatment)
[24] = 100 g ai/ha, Wheat (14 days after treatment)

## Cn1nnc(COCc2nc(C(F)(F)Cl)ccc2C(=O)Nc2nnnn2C)n1 [Compound No. 2-78, 6-(chlorodifluoromethyl)-N-(1-methyl-1H-tetrazol-5-yl)-2-(((2-methyl-2H-tetrazol-5-yl)methoxy)methyl)nicotinamide]
Sorghum [1]
  plant injury at 50 g/ha: 30%
Barnyard grass
  pest or weed control at 50 g/ha: 70%
Fall panicum
  pest or weed control at 50 g/ha: 70%
Indian jointvetch
  pest or weed control at 50 g/ha: 80%
Cocklebur [2]
  pest or weed control at 50 g/ha: 60%
Sorghum [3]
  plant injury at 50 g/ha: 50%
Quack grass
  Soil treatment herbicidal activity, quack grass: 0
velvetleaf
  Soil treatment herbicidal activity, velvet leaf: 100
Cocklebur [4]; Xanthium strumarium
  pest or weed control at 50 g/ha: 70%
corn; [5]
  Foliar treatment phytotoxicity, Corn: 2
corn; [6]
  Foliar treatment phytotoxicity, Corn: 1
corn; [7]
  Foliar treatment phytotoxicity, Corn: 3
corn; [8]
  Foliar treatment phytotoxicity, Corn: 1
cotton; [9]
  Foliar treatment phytotoxicity, Cotton: 5
cotton; [10]
  Foliar treatment phytotoxicity, Cotton: 9
cotton; [11]
  Foliar treatment phytotoxicity, Cotton: 6
cotton; [12]
  Foliar treatment phytotoxicity, Cotton: 9
rice; [13]
  Foliar treatment phytotoxicity, Rice: 5
rice; [14]
  Foliar treatment phytotoxicity, Rice: 4
rice; [15]
  Foliar treatment phytotoxicity, Rice: 6
rice; [16]
  Foliar treatment phytotoxicity, Rice: 5
soybean; [17]
  Foliar treatment phytotoxicity, Soybean: 5
soybean; [18]
  Foliar treatment phytotoxicity, Soybean: 5
soybean; [19]
  Foliar treatment phytotoxicity, Soybean: 6
soybean; [20]
  Foliar treatment phytotoxicity, Soybean: 6
wheat; [21]
  Foliar treatment phytotoxicity, Wheat: 0
wheat; [22]
  Foliar treatment phytotoxicity, Wheat: 0
wheat; [23]
  Foliar treatment phytotoxicity, Wheat: 0
wheat; [24]
  Foliar treatment phytotoxicity, Wheat: 0

## Cn1nnc(COCc2nc(C(F)F)ccc2C(=O)Nc2nnnn2C)n1 [Compound No. 2-84, 6-(difluoromethyl)-N-(1-methyl-1H-tetrazol-5-yl)-2-(((2-methyl-2H-tetrazol-5-yl)methoxy)methyl)nicotinamide]
Sorghum [1]
  plant injury at 50 g/ha: 90%
Barnyard grass
  pest or weed control at 50 g/ha: 95%
Fall panicum
  pest or weed control at 50 g/ha: 90%
Indian jointvetch
  pest or weed control at 50 g/ha: 70%
Cocklebur [2]
  pest or weed control at 50 g/ha: 95%
Sorghum [3]
  plant injury at 50 g/ha: 20%
Quack grass
  Soil treatment herbicidal activity, quack grass: 0
velvetleaf
  Soil treatment herbicidal activity, velvet leaf: 100
Cocklebur [4]
  Soil treatment herbicidal activity, Cocklebur: 0
corn; [5]
  Foliar treatment phytotoxicity, Corn: 2
corn; [6]
  Foliar treatment phytotoxicity, Corn: 1
corn; [7]
  Foliar treatment phytotoxicity, Corn: 3
corn; [8]
  Foliar treatment phytotoxicity, Corn: 4
cotton; [9]
  Foliar treatment phytotoxicity, Cotton: 5
cotton; [10]
  Foliar treatment phytotoxicity, Cotton: 9
cotton; [11]
  Foliar treatment phytotoxicity, Cotton: 5
cotton; [12]
  Foliar treatment phytotoxicity, Cotton: 9
rice; [13]
  Foliar treatment phytotoxicity, Rice: 6
rice; [14]
  Foliar treatment phytotoxicity, Rice: 7
rice; [15]
  Foliar treatment phytotoxicity, Rice: 6
rice; [16]
  Foliar treatment phytotoxicity, Rice: 9
soybean; [17]
  Foliar treatment phytotoxicity, Soybean: 6
soybean; [18]
  Foliar treatment phytotoxicity, Soybean: 7
soybean; [19]
  Foliar treatment phytotoxicity, Soybean: 6
soybean; [20]
  Foliar treatment phytotoxicity, Soybean: 8
wheat; [21]
  Foliar treatment phytotoxicity, Wheat: 0
wheat; [22]
  Foliar treatment phytotoxicity, Wheat: 0
wheat; [23]
  Foliar treatment phytotoxicity, Wheat: 0
wheat; [24]
  Foliar treatment phytotoxicity, Wheat: 0

## Cn1nnnc1NC(=O)c1ccc(C(F)(F)F)nc1OCc1nnnn1C(F)F [Compound No. 1-26, 2-((1-(difluoromethyl)-1H-tetrazol-5-yl)methoxy)-N-(1-methyl-1H-tetrazol-5-yl)-6-(trifluoromethyl)nicotinamide]
Sorghum [1]
  plant injury at 50 g/ha: 70%
Barnyard grass
  pest or weed control at 50 g/ha: 95%
Fall panicum
  pest or weed control at 50 g/ha: 98%
Indian jointvetch
  pest or weed control at 50 g/ha: 70%
Cocklebur [2]
  pest or weed control at 50 g/ha: 70%
Sorghum [3]
  plant injury at 50 g/ha: 30%
Quack grass
  Soil treatment herbicidal activity, quack grass: 0
velvetleaf
  Soil treatment herbicidal activity, velvet leaf: 100
Cocklebur [4]
  Soil treatment herbicidal activity, Cocklebur: 0
corn; [5]
  Foliar treatment phytotoxicity, Corn: 1
corn; [6]
  Foliar treatment phytotoxicity, Corn: 0
corn; [7]
  Foliar treatment phytotoxicity, Corn: 2
corn; [8]
  Foliar treatment phytotoxicity, Corn: 2
cotton; [9]
  Foliar treatment phytotoxicity, Cotton: 2
cotton; [10]
  Foliar treatment phytotoxicity, Cotton: 6
cotton; [11]
  Foliar treatment phytotoxicity, Cotton: 4
cotton; [12]
  Foliar treatment phytotoxicity, Cotton: 9
rice; [13]
  Foliar treatment phytotoxicity, Rice: 3
rice; [14]
  Foliar treatment phytotoxicity, Rice: 6
rice; [15]
  Foliar treatment phytotoxicity, Rice: 4
rice; [16]
  Foliar treatment phytotoxicity, Rice: 7
soybean; [17]
  Foliar treatment phytotoxicity, Soybean: 5
soybean; [18]
  Foliar treatment phytotoxicity, Soybean: 5
soybean; [19]
  Foliar treatment phytotoxicity, Soybean: 5
soybean; [20]
  Foliar treatment phytotoxicity, Soybean: 5
wheat; [21]
  Foliar treatment phytotoxicity, Wheat: 0
wheat; [22]
  Foliar treatment phytotoxicity, Wheat: 0
wheat; [23]
  Foliar treatment phytotoxicity, Wheat: 1
wheat; [24]
  Foliar treatment phytotoxicity, Wheat: 2

## Cn1nnc(COCc2nc(C(F)(F)F)ccc2C(=O)N(c2nnnn2C)S(C)(=O)=O)n1 [Compound No. 2-69, N-(1-methyl-1H-tetrazol-5-yl)-2-(((2-methyl-2H-tetrazol-5-yl)methoxy)methyl)-N-(methylsulfonyl)-6-(trifluoromethyl)nicotinamide]
Sorghum [1]
  plant injury at 50 g/ha: 40%
Barnyard grass
  pest or weed control at 50 g/ha: 70%
Fall panicum
  pest or weed control at 50 g/ha: 60%
Indian jointvetch
  pest or weed control at 50 g/ha: 80%
Cocklebur [2]
  pest or weed control at 50 g/ha: 95%
Sorghum [3]
  plant injury at 50 g/ha: 70%
Quack grass
  Soil treatment herbicidal activity, quack grass: 0
velvetleaf
  Soil treatment herbicidal activity, velvet leaf: 100
Cocklebur [4]
  Soil treatment herbicidal activity, Cocklebur: 0
corn; [5]
  Foliar treatment phytotoxicity, Corn: 4
corn; [6]
  Foliar treatment phytotoxicity, Corn: 3
cotton; [9]
  Foliar treatment phytotoxicity, Cotton: 4
cotton; [10]
  Foliar treatment phytotoxicity, Cotton: 9
rice; [13]
  Foliar treatment phytotoxicity, Rice: 6
rice; [14]
  Foliar treatment phytotoxicity, Rice: 7
soybean; [17]
  Foliar treatment phytotoxicity, Soybean: 6
soybean; [18]
  Foliar treatment phytotoxicity, Soybean: 6
wheat; [21]
  Foliar treatment phytotoxicity, Wheat: 0
wheat; [22]
  Foliar treatment phytotoxicity, Wheat: 0

## Cn1ncnc1COCc1nc(C(F)(F)F)ccc1C(=O)Nc1nnnn1C [Compound No. 1-102, 2-(((1-methyl-1H-1,2,4-triazol-5-yl)methoxy)methyl)-N-(1-methyl-1H-tetrazol-5-yl)-6-(trifluoromethyl)nicotinamide]
Sorghum [1]
  plant injury at 50 g/ha: 50%
Barnyard grass
  pest or weed control at 50 g/ha: 80%
Fall panicum
  pest or weed control at 50 g/ha: 70%
Indian jointvetch
  pest or weed control at 50 g/ha: 80%
Cocklebur [2]
  pest or weed control at 50 g/ha: 80%
Sorghum [3]
  Soil treatment herbicidal activity, Sorghum: 0
Quack grass
  Soil treatment herbicidal activity, quack grass: 0
velvetleaf; Abutilon theophrasti, read-out: Soil treatment herbicidal activity, velvet leaf
  pest or weed control at 50 g/ha: 40%
Cocklebur [4]
  Soil treatment herbicidal activity, Cocklebur: 0
corn; [5]
  Foliar treatment phytotoxicity, Corn: 6
corn; [6]
  Foliar treatment phytotoxicity, Corn: 6
corn; [7]
  Foliar treatment phytotoxicity, Corn: 6
corn; [8]
  Foliar treatment phytotoxicity, Corn: 8
cotton; [9]
  Foliar treatment phytotoxicity, Cotton: 4
cotton; [10]
  Foliar treatment phytotoxicity, Cotton: 8
cotton; [11]
  Foliar treatment phytotoxicity, Cotton: 5
cotton; [12]
  Foliar treatment phytotoxicity, Cotton: 9
rice; [13]
  Foliar treatment phytotoxicity, Rice: 6
rice; [14]
  Foliar treatment phytotoxicity, Rice: 8
rice; [15]
  Foliar treatment phytotoxicity, Rice: 7
rice; [16]
  Foliar treatment phytotoxicity, Rice: 9
soybean; [17]
  Foliar treatment phytotoxicity, Soybean: 5
soybean; [18]
  Foliar treatment phytotoxicity, Soybean: 8
soybean; [19]
  Foliar treatment phytotoxicity, Soybean: 6
soybean; [20]
  Foliar treatment phytotoxicity, Soybean: 9
wheat; [21]
  Foliar treatment phytotoxicity, Wheat: 2
wheat; [22]
  Foliar treatment phytotoxicity, Wheat: 2
wheat; [23]
  Foliar treatment phytotoxicity, Wheat: 3
wheat; [24]
  Foliar treatment phytotoxicity, Wheat: 3
